In US11180452B2, “Methods and compositions for selectively inhibiting pathogenic microbes” (priority 2019, dated 2021):
Converted amounts (≈) assume the structure as drawn. Where two headings read alike, the source gives them in different places.

Key:
[1] = tested on: C. albicans; experiment: Candida albicans MIC / MFC; type: cell-based
[2] = tested on: Candida glabrata; experiment: Candida glabrata MIC / MFC; type: cell-based; conditions: Nakaseomyces glabratus
[3] = tested on: Francisella tularensis subsp. Holarctica Strain LVSR NR-597; experiment: microbe, parasite or virus in culture; type: cell-based
[4] = tested on: Burkholderia thailandensis Brett et al ATCC: 700388; experiment: microbe, parasite or virus in culture; type: cell-based
[5] = tested on: Bacillus thuringiensis; type: cell-based; conditions: Bacillus thuringiensis Berliner ATCC: 10792; for MIC: Bacillus thuringiensis, read-out: MIC
[6] = tested on: Bacillus subtilis; experiment: Bacillus subtilis MIC / MBC; type: cell-based; conditions: for MBC: Bacillus subtilis NRRL: B-571, minimum bactericidal concentration; for MIC: Bacillus subtilis, Bacillus subtilis (Ehrenberg 1835) Cohn 1872 NRRL: B-571, read-out: MIC
[7] = tested on: Trichophyton rubrum; experiment: MIC against Trichophyton rubrum; type: cell-based; conditions: Trichophyton rubrum Castellani Sabouraud ATCC: 28188; read-out: MIC
[8] = tested on: NoSpin HepaRG cells; experiment: HepaRG cytotoxicity, MTT assay EC50; type: cell-based, human; conditions: Homo sapiens, HepaRG; cytotoxicity EC50, Table 9
Experimental: Additionally, the antimicrobial compounds were analyzed for cytotoxicity. […] We utilized the standard MTT assay (Promega CellTiter 96) and GraphPad Prism 7 software to determine EC50 values for each analogue. Briefly, 20,000 HepG2 cells in 200 μl of the ATCC recommended media were seeded in each well of a 96-well plate with a moisture barrier created in the outermost wells. The cells were allowed to attach overnight at 37° C., and then observed under phase contrast microscopy for proper morphological characteristics. […] Once incubations were complete, the spectrophotometric absorbance of the samples was measured at a wavelength of 595 nm. […] For the HepaRG assay, NoSpin HepaRG™ cells (Lonza, cat #NSHPRG) were thawed and plated with 20,000 cells per well. They were allowed to attach for 4 h (optimal DME profile per Lonza's testing) before dosing following the identical protocol as above.

[9] = tested on: Francisella tularensis strains; experiment: microbe, parasite or virus in culture; type: cell-based
[10] = Candida glabrata #584 (Table 2), minimum fungicidal concentration, read-out: MFC
[11] = Candida glabrata #584 (Table 2), read-out: MIC
[12] = C. albicans strain #761, read-out: MIC
[13] = C. albicans strain #762, read-out: MFC
[14] = C. glabrata strain #325, read-out: MIC
[15] = C. albicans strain #762, read-out: MIC

Structure (SMILES)	MFC [2, 10]	MIC [2, 11]	MIC [3]	MIC [4]	MBC [5]	MIC [5]	MBC [6]	MIC [6]	MIC [7]	EC50 [8]	MBC [4]	other results
Fc1ccc2c(Sc3ccc(Br)cc3)c[nH]c2c1 [Compound 172A, 3-((4-bromophenyl)thio)-6-fluoro-1H-indole]	3.13 µg/mL (≈ 9.71 µM)	1.56 µg/mL (≈ 4.84 µM)	0.78 µg/mL (≈ 2.42 µM)	> 50 µg/mL	1.56 µg/mL (≈ 4.84 µM)	1.56 µg/mL (≈ 4.84 µM)	> 50 µg/mL	1.56 µg/mL (≈ 4.84 µM)	9.52 µg/mL (≈ 29.5 µM)			MFC ([1]; C. albicans strain #761): 12.5 µg/mL (≈ 38.8 µM); MIC ([1]; C. albicans strain #761): 3.13 µg/mL (≈ 9.71 µM); MFC ([1]; C. albicans strain #762): 6.25 µg/mL (≈ 19.4 µM); MIC ([1]; C. albicans strain #762): 1.56 µg/mL (≈ 4.84 µM); MFC ([2]; C. glabrata strain #325): 12.5 µg/mL (≈ 38.8 µM); MIC ([2]; C. glabrata strain #325): 6.25 µg/mL (≈ 19.4 µM)
Brc1ccc2[nH]cc(Sc3c[nH]c4ccccc34)c2c1 [Compound 174AL, 3-((1H-indol-3-yl)thio)-5-bromo-1H-indole]				> 50 µg/mL	> 50 µg/mL					26.1 µg/mL (≈ 76 µM)		
Clc1ccc2[nH]cc(Sc3ccc(Br)cc3)c2c1 [Compound 174C, 3-((4-bromophenyl)thio)-5-chloro-1H-indole]		3.13 µg/mL (≈ 9.24 µM)	1.56 µg/mL (≈ 4.61 µM)	> 50 µg/mL	1.56 µg/mL (≈ 4.61 µM)	1.56 µg/mL (≈ 4.61 µM)	3.13 µg/mL (≈ 9.24 µM)	1.56 µg/mL (≈ 4.61 µM)	2.11 µg/mL (≈ 6.23 µM)	25.4 µg/mL (≈ 75 µM)		
Brc1ccc(Sc2c[nH]c3cccc(Br)c23)cc1 [Compound 174D, 4-bromo-3-((4-bromophenyl)thio)-1H-indole]			1.56 µg/mL (≈ 4.07 µM)	> 50 µg/mL	3.13 µg/mL (≈ 8.17 µM)	1.56 µg/mL (≈ 4.07 µM)		1.56 µg/mL (≈ 4.07 µM)	2.38 µg/mL (≈ 6.21 µM)	23.2 µg/mL (≈ 60.6 µM)		MIC [1, 12]: > 50 µg/mL; MFC [1, 13]: 12.5 µg/mL (≈ 32.6 µM); MIC [2, 14]: > 50 µg/mL
Clc1ccc(Sc2c[nH]c3ccc(Br)cc23)cc1 [Compound 174J, 5-bromo-3-((4-chlorophenyl)thio)-1H-indole]	> 50 µg/mL	6.25 µg/mL (≈ 18.5 µM)		> 50 µg/mL	1.56 µg/mL (≈ 4.61 µM)	1.56 µg/mL (≈ 4.61 µM)	3.13 µg/mL (≈ 9.24 µM)	1.56 µg/mL (≈ 4.61 µM)	1.05 µg/mL (≈ 3.1 µM)	25.3 µg/mL (≈ 74.7 µM)		
Fc1ccc(Sc2c[nH]c3ccc(Br)cc23)cc1 [Compound 174P, 5-bromo-3-((4-fluorophenyl)thio)-1H-indole]	> 50 µg/mL	3.13 µg/mL (≈ 9.71 µM)		> 50 µg/mL	> 50 µg/mL	1.56 µg/mL (≈ 4.84 µM)	3.13 µg/mL (≈ 9.71 µM)	1.56 µg/mL (≈ 4.84 µM)	2.01 µg/mL (≈ 6.24 µM)	38.3 µg/mL (≈ 119 µM)		
Clc1ccc(Sc2c[nH]c3ccc(Br)cc23)c(Cl)c1 [Compound 174V, 5-bromo-3-((2,4-dichlorophenyl)thio)-1H-indole]	12.5 µg/mL (≈ 33.5 µM)	3.13 µg/mL (≈ 8.39 µM)		> 50 µg/mL	2.5 µg/mL (≈ 6.7 µM)	1.25 µg/mL (≈ 3.35 µM)	2.5 µg/mL (≈ 6.7 µM)	1.25 µg/mL (≈ 3.35 µM)	0.58 µg/mL (≈ 1.55 µM)	24.8 µg/mL (≈ 66.5 µM)		
Clc1ccc(Sc2c[nH]c3ccc(Br)cc23)cc1Cl [Compound 174W, 5-bromo-3-((3,4-dichlorophenyl)thio)-1H-indole]		25 µg/mL (≈ 67 µM)		> 50 µg/mL	5 µg/mL (≈ 13.4 µM)	1.25 µg/mL (≈ 3.35 µM)	> 10 µg/mL	1.25 µg/mL (≈ 3.35 µM)	1.16 µg/mL (≈ 3.11 µM)			MIC [1, 12]: > 50 µg/mL; MIC [1, 15]: > 50 µg/mL; MIC [2, 14]: > 50 µg/mL; MIC ([2]; C. glabrata strain #584 (Table 7), read-out: MIC): 25 µg/mL (≈ 67 µM)
Nc1cc(Br)ccc1Sc1c[nH]c2ccc(Br)cc12 [Compound 174X, 5-bromo-2-((5-bromo-1H-indol-3-yl)thio)aniline]	6.25 µg/mL (≈ 15.7 µM)			> 50 µg/mL	2.5 µg/mL (≈ 6.28 µM)	2.5 µg/mL (≈ 6.28 µM)	> 10 µg/mL	1.56 µg/mL (≈ 3.92 µM)	0.62 µg/mL (≈ 1.56 µM)	30.2 µg/mL (≈ 75.9 µM)		MFC ([1]; C. albicans strain #761, read-out: MFC): > 50 µg/mL; MIC [1, 12]: 12.5 µg/mL (≈ 31.4 µM); MFC [1, 13]: > 50 µg/mL; MIC [1, 15]: 12.5 µg/mL (≈ 31.4 µM); MFC ([2]; C. glabrata strain #325, read-out: MFC): > 50 µg/mL; MIC [2, 14]: 12.5 µg/mL (≈ 31.4 µM); MIC50 [9]: 4 µg/mL (≈ 10 µM); MIC ([9]; read-out: F. tularensis BSL-3 MIC, Strain 100): 8 µg/mL (≈ 20.1 µM); MIC ([9]; read-out: F. tularensis BSL-3 MIC, strain HN-63): 4 µg/mL (≈ 10 µM); MIC ([9]; read-out: F. tularensis BSL-3 MIC, strain LVS): > 8 µg/mL; MIC ([9]; read-out: F. tularensis BSL-3 MIC, strain MA00-2987): 4 µg/mL (≈ 10 µM); MIC ([9]; read-out: F. tularensis BSL-3 MIC, strain MO #1): 2.67 µg/mL (≈ 6.71 µM); MIC ([9]; read-out: F. tularensis BSL-3 MIC, strain MO #2): 2 µg/mL (≈ 5.02 µM); MIC ([9]; read-out: F. tularensis BSL-3 MIC, strain MO #3): 4 µg/mL (≈ 10 µM); MIC ([9]; read-out: F. tularensis BSL-3 MIC, strain OR-96): 4 µg/mL (≈ 10 µM); MIC ([9]; read-out: F. tularensis BSL-3 MIC, strain SCHU S4): 4 µg/mL (≈ 10 µM); MIC ([9]; read-out: F. tularensis BSL-3 MIC, strain WY-96): 3 µg/mL (≈ 7.54 µM); MIC ([9]; read-out: MAX, highest MIC over the Francisella tularensis strains): > 8 µg/mL; MIC ([9]; read-out: MIN, lowest MIC over the Francisella tularensis strains): 2 µg/mL (≈ 5.02 µM)
Oc1ccc(Sc2c[nH]c3ccc(C(F)(F)F)cc23)cc1 [Compound 177B, 4-((5-(trifluoromethyl)-1H-indol-3-yl)thio)phenol]		> 50 µg/mL	3.13 µg/mL (≈ 10.1 µM)	25 µg/mL (≈ 80.8 µM)				1.56 µg/mL (≈ 5.04 µM)		27.7 µg/mL (≈ 89.6 µM)	> 50 µg/mL	
Fc1ccccc1Sc1c[nH]c2ccc(C(F)(F)F)cc12 [Compound 177D, 3-((2-fluorophenyl)thio)-5-(trifluoromethyl)-1H-indole]		25 µg/mL (≈ 80.3 µM)	0.78 µg/mL (≈ 2.51 µM)	> 50 µg/mL				1.56 µg/mL (≈ 5.01 µM)		27.1 µg/mL (≈ 87.1 µM)	> 50 µg/mL	
Fc1ccc2[nH]cc(Sc3ccccc3Br)c2c1 [Compound 177E, 3-((2-bromophenyl)thio)-5-fluoro-1H-indole]		25 µg/mL (≈ 77.6 µM)	0.78 µg/mL (≈ 2.42 µM)	> 50 µg/mL				1.56 µg/mL (≈ 4.84 µM)		31.6 µg/mL (≈ 98.1 µM)	> 50 µg/mL	
FC(F)(F)c1ccc2[nH]cc(Sc3ccccc3C(F)(F)F)c2c1 [Compound 177F, 5-(trifluoromethyl)-3-((2-(trifluoromethyl)phenyl)thio)-1H-indole]		50 µg/mL (≈ 138 µM)	1.56 µg/mL (≈ 4.32 µM)	> 50 µg/mL				1.56 µg/mL (≈ 4.32 µM)		29.8 µg/mL (≈ 82.5 µM)	> 50 µg/mL	
CCc1ccccc1Sc1c[nH]c2ccc(C(F)(F)F)cc12 [Compound 177G, 3-((2-ethylphenyl)thio)-5-(trifluoromethyl)-1H-indole]		> 50 µg/mL	0.78 µg/mL (≈ 2.43 µM)	> 50 µg/mL				1.56 µg/mL (≈ 4.85 µM)		29.5 µg/mL (≈ 91.8 µM)	> 50 µg/mL	
OCc1[nH]c2ccc(Br)cc2c1Sc1ccccc1Br [Compound 177H, (5-bromo-3-((2-bromophenyl)thio)-1H-indol-2-yl)methanol]		50 µg/mL (≈ 121 µM)	3.13 µg/mL (≈ 7.58 µM)	> 50 µg/mL				1.56 µg/mL (≈ 3.78 µM)		31.8 µg/mL (≈ 77 µM)	> 50 µg/mL	
CCc1ccccc1Sc1c(CO)[nH]c2ccc(C(F)(F)F)cc12 [Compound 177I, (3-((2-ethylphenyl)thio)-5-(trifluoromethyl)-1H-indol-2-yl)methanol]		> 50 µg/mL	3.13 µg/mL (≈ 8.91 µM)	> 50 µg/mL				3.13 µg/mL (≈ 8.91 µM)		31.3 µg/mL (≈ 89.1 µM)	> 50 µg/mL	
